Data set [1] concerns the target T1, cysteine-free form of IDE (CF-IDE) (Homo sapiens, UniProt P14735, C819S, form not given).
T1 sequence (P14735 42-1019 C819S): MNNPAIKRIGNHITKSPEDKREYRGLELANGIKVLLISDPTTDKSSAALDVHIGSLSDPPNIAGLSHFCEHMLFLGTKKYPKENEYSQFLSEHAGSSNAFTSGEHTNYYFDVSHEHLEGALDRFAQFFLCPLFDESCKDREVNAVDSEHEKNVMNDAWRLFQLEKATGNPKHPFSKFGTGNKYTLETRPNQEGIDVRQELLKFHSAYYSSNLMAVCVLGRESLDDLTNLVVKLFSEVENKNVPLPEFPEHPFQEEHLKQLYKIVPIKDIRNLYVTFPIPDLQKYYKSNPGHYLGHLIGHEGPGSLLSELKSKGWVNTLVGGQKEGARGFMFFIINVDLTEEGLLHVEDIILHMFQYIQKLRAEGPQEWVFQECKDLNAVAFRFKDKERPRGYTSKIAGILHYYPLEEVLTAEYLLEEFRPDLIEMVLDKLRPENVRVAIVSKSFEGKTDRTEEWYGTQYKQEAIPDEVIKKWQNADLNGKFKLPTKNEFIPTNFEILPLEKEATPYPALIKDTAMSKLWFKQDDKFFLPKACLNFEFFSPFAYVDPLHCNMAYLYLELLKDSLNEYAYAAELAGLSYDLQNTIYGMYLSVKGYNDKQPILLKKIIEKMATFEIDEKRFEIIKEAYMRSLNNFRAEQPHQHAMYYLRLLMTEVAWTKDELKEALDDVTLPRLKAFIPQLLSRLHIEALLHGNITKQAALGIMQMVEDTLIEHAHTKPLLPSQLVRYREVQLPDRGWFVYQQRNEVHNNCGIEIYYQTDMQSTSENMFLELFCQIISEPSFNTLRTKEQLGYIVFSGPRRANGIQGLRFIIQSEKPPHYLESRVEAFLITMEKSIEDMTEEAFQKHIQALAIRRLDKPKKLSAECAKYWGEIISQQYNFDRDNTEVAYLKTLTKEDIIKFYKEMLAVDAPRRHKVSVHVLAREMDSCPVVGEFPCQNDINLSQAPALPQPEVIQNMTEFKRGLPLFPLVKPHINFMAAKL
Put plainly: IDE activity assay with FRET1 using cysteine-free IDE. The settings on record: read-out: ki CF-IDE. In kind it is biochemical.

Data set [2] concerns the target T2, recombinant wild-type IDE (WT-IDE) (Homo sapiens, UniProt P14735).
T2 sequence (P14735 1-1019): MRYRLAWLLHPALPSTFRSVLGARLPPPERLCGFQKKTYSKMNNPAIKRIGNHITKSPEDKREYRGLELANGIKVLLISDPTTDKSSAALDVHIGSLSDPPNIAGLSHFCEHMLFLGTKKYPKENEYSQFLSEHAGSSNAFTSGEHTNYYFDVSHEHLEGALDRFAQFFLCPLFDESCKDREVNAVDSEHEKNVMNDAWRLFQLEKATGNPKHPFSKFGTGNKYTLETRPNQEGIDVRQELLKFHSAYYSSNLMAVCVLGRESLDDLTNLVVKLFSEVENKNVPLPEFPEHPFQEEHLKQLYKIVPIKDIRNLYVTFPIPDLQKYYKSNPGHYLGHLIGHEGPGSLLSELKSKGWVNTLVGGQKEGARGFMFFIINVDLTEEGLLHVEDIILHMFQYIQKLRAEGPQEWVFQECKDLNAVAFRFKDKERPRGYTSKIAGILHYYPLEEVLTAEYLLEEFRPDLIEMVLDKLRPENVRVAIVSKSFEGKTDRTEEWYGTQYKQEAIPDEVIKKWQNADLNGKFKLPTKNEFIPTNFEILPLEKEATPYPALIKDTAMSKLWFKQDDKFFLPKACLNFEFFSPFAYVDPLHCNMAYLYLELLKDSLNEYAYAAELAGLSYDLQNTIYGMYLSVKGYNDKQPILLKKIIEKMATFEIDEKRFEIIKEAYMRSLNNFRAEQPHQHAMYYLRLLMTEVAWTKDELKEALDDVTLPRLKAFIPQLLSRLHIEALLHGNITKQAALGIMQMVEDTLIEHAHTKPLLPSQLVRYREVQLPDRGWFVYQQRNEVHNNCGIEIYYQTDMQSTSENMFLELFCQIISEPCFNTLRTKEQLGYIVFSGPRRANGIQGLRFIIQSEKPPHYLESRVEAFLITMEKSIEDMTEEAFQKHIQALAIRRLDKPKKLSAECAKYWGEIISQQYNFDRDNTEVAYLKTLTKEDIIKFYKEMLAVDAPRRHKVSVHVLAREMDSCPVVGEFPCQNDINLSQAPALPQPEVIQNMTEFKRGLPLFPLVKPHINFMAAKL
Put plainly: cell-free IDE activity assay with fluorogenic peptide substrate FRET1. In kind it is biochemical.

Data set [3] in a line: liver microsome stability, mouse. In kind it is in vitro ADME. As to conditions: mouse liver microsomes. On the technique in general: Microsomes from liver hold many membrane-bound enzymes, among them those of drug oxidation.
Another data set deals with HEK-293 cells. The data set can be described thus: luminescence-based HEK cell viability. The settings on record: up to 100 μM. Set-up: species or system human.

Read-outs that look alike come from different tables or passages of the source.

The term Ki denotes a dissociation constant, usually derived from enzyme kinetics or from competition with a known ligand. In general, IC50 refers to the concentration at which inhibition is half-maximal. In the case of `O=c1c2cc(F)ccc2sn1-c1cc(S(=O)(=O)N2CCOCC2)ccc1N1CCOCC1` [Compound 8, 5-fluoro-2-(2-morpholin-4-yl-5-morpholin-4-ylsulfonylphenyl)-1,2-benzothiazol-3-one], the inhibitory constant (Ki) in data set [1] turned out to be 8370 nM. Besides, the “BEI (binding efficiency index, pIC50^app/MW, kDa)” value in data set [2] came out at 15. Moreover, the IC50 in data set [2] (read-out: IC50^app cell-free, Table 2) came to 63 nM; in data set [2] (read-out: IC50^app in vitro, FRET1, Table 3, n=5) it was 63 ± 8.1 nM. Further, in data set [3], the “Liver microsome stability, Mouse” value came out at 24 min. Also, in the data set on HEK-293 cells, the toxicity in cells entry is on record as “no toxicity”.

(Values after article PMC10127574 (ACS chemical biology, 2015).)
